How the values were obtained:
Assay type in all cases: in vivo, human
celiac disease [1] = experiment: Elimination-provocation (gluten challenge) test: Gastrointestinal Symptom Rating Scale (GSRS); settings: for GSRS (mean total score): rebamipide 100 mg three times a day
Description: To study the effect of rebamipide on the celiac disease, a gluten challenge test was employed. Adult patients admitted into the test were stabilized on a gluten-free diet (GFD) leading to disappearance of the disease symptoms for at least 12 months. All participants were previously diagnosed by a physician for the celiac disease using upper endoscopy and duodenal biopsy. The gluten-free diet adherence was confirmed by high villous height/crypt depth ratio (Vh/Cd>2-3) and decline in anti-tTG antibody levels (less than 10 U/mL) after the exclusion of gluten from the diet.
Patients were divided into two groups taking either rebamipide 100 mg three times a day or placebo just before each major meal. Both groups continued the gluten-free diet. The gluten challenge test was carried out three month (day 90) after the start of the treatment. Patients were given one slice of white bread comprising about 2.7 g of wheat gluten every day for the period of 6 weeks but otherwise maintained their usual gluten-free diet. Both groups continued receiving either rebamipide or placebo treatment.
CD symptoms were weekly evaluated by the Gastrointestinal Symptom Rating Scale (GSRS) questionnaire, an instrument that is widely used in research on celiac disease and other gastrointestinal disorders (Svedlund J, Sjodin I, Dotevall G. GSRS—a clinical rating scale for gastrointestinal symptoms in patients with irritable bowel syndrome and peptic ulcer disease. Dig Dis Sci 1988; 33:129-134). It consists of 15 questions that are grouped into five domains (diarrhea, abdominal pain, indigestion, constipation, and reflux), which are combined into a total score calculated as a mean of all 15 questions. The scoring is based on a Likert scale from 1 to 7 points, where 1 point indicates minimal gastrointestinal symptoms and 7 points the most severe symptoms.

intestinal permeability = experiment: Elimination-provocation (gluten challenge) test: urinary lactulose/mannitol (La/Ma) fractional excretion ratio; settings: for La/Ma (urinary lactulose/mannitol fractional excretion ratio): rebamipide 100 mg three times a day
Description: To study the effect of rebamipide on the celiac disease, a gluten challenge test was employed. Adult patients admitted into the test were stabilized on a gluten-free diet (GFD) leading to disappearance of the disease symptoms for at least 12 months. All participants were previously diagnosed by a physician for the celiac disease using upper endoscopy and duodenal biopsy. The gluten-free diet adherence was confirmed by high villous height/crypt depth ratio (Vh/Cd>2-3) and decline in anti-tTG antibody levels (less than 10 U/mL) after the exclusion of gluten from the diet. Patients were divided into two groups taking either rebamipide 100 mg three times a day or placebo just before each major meal. Both groups continued the gluten-free diet. The gluten challenge test was carried out three month (day 90) after the start of the treatment. Patients were given one slice of white bread comprising about 2.7 g of wheat gluten every day for the period of 6 weeks but otherwise maintained their usual gluten-free diet. Both groups continued receiving either rebamipide or placebo treatment. The intestinal permeability was measured using the standard urinary lactulose/mannitol (La/Ma) fractional excretion ratio at the beginning of the lest, before and after 6-week challenge. The La/Ma test is based on a different absorption of non-metabolized sugars. In the healthy intestine, monosaccharides (e.g. mannitol) are passively absorbed through the intestinal mucosa, while larger disaccharide molecules (e.g. lactulose) are normally almost not absorbed. On the contrary, patients with the celiac disease have a consistent increase in the absorption of lactulose (via the paracellular route) due to increased permeability of the intestine and a reduction in the absorption of mannitol (via the transcellular route) due to a reduction in surface area as a result of villous atrophy, resulting in an increase in the La/Ma ratio.

celiac disease [2] = experiment: Elimination-provocation (gluten challenge) test: duodenal biopsy, villous height to crypt depth ratio; settings: for Vh/Cd (villous height to crypt depth ratio): duodenal biopsy
Description: (§1) To study the effect of rebamipide on the celiac disease, a gluten challenge test was employed. Adult patients admitted into the test were stabilized on a gluten-free diet (GFD) leading to disappearance of the disease symptoms for at least 12 months. All participants were previously diagnosed by a physician for the celiac disease using upper endoscopy and duodenal biopsy. The gluten-free diet adherence was confirmed by high villous height/crypt depth ratio (Vh/Cd>2-3) and decline in anti-tTG antibody levels (less than 10 U/mL) after the exclusion of gluten from the diet. Patients were divided into two groups taking either rebamipide 100 mg three times a day or placebo just before each major meal. Both groups continued the gluten-free diet. The gluten challenge test was carried out three month (day 90) after the start of the treatment. Patients were given one slice of white bread comprising about 2.7 g of wheat gluten every day for the period of 6 weeks but otherwise maintained their usual gluten-free diet. Both groups continued receiving either rebamipide or placebo treatment. Duodenal biopsy was performed at the beginning (day 0) and at the end (day 132) of the study period. Villous height to crypt depth ratio (Vh/Cd) was determined by measuring the mean height/mean depth of adjacent villi/crypts by a pathologist. The ratio of <2 is regarded as indicative of villous atrophy and crypt hyperplasia.

anti-tTG IgA antibody = experiment: Elimination-provocation (gluten challenge) test: serum anti-tTG IgA antibody ELISA
Description: as §1, with “Serum mean anti-tTG IgA antibody levels were” for “Duodenal biopsy was performed at the beginning (day 0) and at the end (day 132) of the study period. Villous height to crypt depth ratio (Vh/Cd) was”, “an enzyme-linked immunosorbent assay (ELISA) and” for “measuring”, “difference at baseline” for “mean height/mean depth of adjacent villi/crypts by a pathologist. The ratio of <2 is regarded as indicative of villous atrophy”, “after 6-week challenge was compared.” for “crypt hyperplasia.”

[3] = day 132, after 6-week gluten challenge, rebamipide 100 mg three times a day

## O=C(NC(Cc1cc(=O)[nH]c2ccccc12)C(=O)O)c1ccc(Cl)cc1 (stereo not drawn) [Rebamipide, 2-[(4-chlorobenzoyl)amino]-3-(2-oxo-1H-quinolin-4-yl)propanoic acid]
Celiac disease [1]; at the end of the study (day 132)
  difference in mean GSRS scores, rebamipide lower than placebo: 0.6 units
Celiac disease [1]; day 0 (baseline), adult celiac patients on gluten-free diet
  GSRS (mean total score): 2.0
Celiac disease [1]; day 90, after three month pretreatment, before gluten challenge
  GSRS (mean total score): 1.7
Celiac disease [1]; day 132, after 6-week gluten challenge (about 2.7 g wheat gluten every day)
  GSRS (mean total score): 1.8
Intestinal permeability; at the end of the gluten challenge
  La/Ma ratio versus baseline: remained near the baseline
Intestinal permeability; day 0 (baseline)
  La/Ma (urinary lactulose/mannitol fractional excretion ratio): 0.057
Intestinal permeability; day 90, before gluten challenge
  La/Ma (urinary lactulose/mannitol fractional excretion ratio): 0.038
Intestinal permeability; day 132, after 6-week gluten challenge
  La/Ma (urinary lactulose/mannitol fractional excretion ratio): 0.048
Celiac disease [2]; after 6 weeks of daily gluten intake
  change from baseline to post treatment in villus height to crypt depth ratio: didn't exhibit negative changes
Celiac disease [2]; day 0 (baseline)
  Vh/Cd (villous height to crypt depth ratio): 2.9
Celiac disease [2]; [3]
  Vh/Cd (villous height to crypt depth ratio): 3.1
anti-tTG IgA antibody; after the gluten challenge
  mean anti-tTG IgA antibody titers: < 10 U/ml
anti-tTG IgA antibody; day 0 (baseline)
  anti-tTG IgA (serum mean antibody level): 3.9 U/ml
anti-tTG IgA antibody; day 90, before gluten challenge, rebamipide 100 mg three times a day
  anti-tTG IgA (serum mean antibody level): 4.3 U/ml
anti-tTG IgA antibody; [3]
  anti-tTG IgA (serum mean antibody level): 7.8 U/ml

— patent US20220304996A1, “REBAMIPIDE FOR USE IN PROPHYLAXIS AND TREATMENT OF CELIAC DISEASE” (SQUARE POWER LTD., priority 2019, published 2022)
